Tests used:
iPSC-derived MEPs [1] = test: Growth / expansion of MEP cultures (manual counts, trypan blue exclusion); type: cell-based, human
Experimental: Plots were gated first in FSC vs. SSC and then from that population for PI ‘ and PE Hoechst’. […] (B) Representative phase contrast images of MEP population+FICZ. (C) Growth curve of day 15 MEPs+/−[…] FICZ. Cells were counted manually using trypan blue exclusion. Graphical data and the associated statistics are the result of three independent experiments per group.
High passage iPSCs were plated onto matrigel coated 6-well plates in iPSC media conditioned on iMEFs for 24 hours and supplemented with 2 ng/ml Rho Kinase Inhibitor and 20 ng/ml bFGF. After two days, iPSC media was replaced with Mesoderm DO-1 media: RPMI (Invitrogen A1049101) supplemented with 5 ng/mlhBMP-4 (R&D 314-BP-010), 50 ng/ml hVEGF (R&D 293-VE-010), 25 ng/mlhWnt3a (R&D 287-TC-500) and 10% KOSR. At Day 2, Mesoderm DO-1 media was replaced with Mesoderm D2 media: RPMI supplemented with 5 ng/ml hBMP-4, 50 ng/mlhVEGF, 20 ng/ml bFGF and 10% KOSR. Mesoderm D3 media consisted of the following: StemPro 34 (Invitrogen 10639011), 5 ng/ml hBMP-4, 50 ng/mlhVEGF, and 20 ng/ml bFGF. Mesoderm media for days 4 and 5 consisted of: StemPro 34, 15 ng/mlhVEGF, and 5 ng/ml bFGF. Day 6 mesoderm media: 74% IMDM (Invitrogen 12330061), 24% Hams F12 (Mediatech 10-080-CV), 1% B27 supplement (Invitrogen 12587-010), 0.5% N2-supplement (Invitrogen 17502-048), 0.5% BSA (Sigma A3059), 50 ng/ml hVEGF, 100 ng/mlbFGF, 100 ng/ml hSCF (R&D 255-SC-010), 25 ng/ml hFlt3 Ligand (R&D 308-FKN-005). Day 7 media: 74% IMDM, 24% Hams F12, 1% B27 supplement, 0.5% N2-supplement, 0.5% BSA, 50 ng/ml hVEGF, 100 ng/ml bFGF, 100 ng/ml hSCF, 25 ng/ml hFlt3 Ligand, 50 ng/ml hTPO (Genentech G140BT), 10 ng/ml IL-6 (R&D 206-IL-010), 0.5 U/ml hEPOgen and 0.2 uM 6-formylindolo[3,2-b]carbazole (FICZ) (Santa Cruz SC300019). After Day 7, 0.5 ml of Day 7 media was added to the culture daily without aspirating the media from the previous day. All base media mixes included 2 mM L-Glutamine (Invitrogen 25030081), 4×10^-4M Monothioglycerol (Sigma M1753), 100 ug/ml Primocin, and 50 ug/ml Ascorbic Acid. Cells in suspension were collected and assayed at Days 10-13 or split for long-term culture.
6-formylindolo[3,2-b]carbazole (FICZ), an AHR small molecule agonist, and CH223191, an AHR competitive inhibitor were used for these assays. CH223191 was added to mesoderm cultures at Day 6 at 5 μM (lx) and 2.504 (0.5×). 0.2 μM FICZ was added to cultures at Day 7 and media was added daily. DMSO was used as a vehicle control.

iPSC-derived MEPs [2] = test: Immunophenotyping of MEP lineage specification (CD235, CD71, CD41 FACS); type: cell-based, human; settings: MEPs in feeder-free conditions, continuous FICZ, day 15 to 30 and later
Experimental: Roughly 10^5 cells were collected, spun, and re-suspended in 0.5% BSA in PBS. Samples were incubated for 30 min at ambient temperature with human antibodies including CD41a-FITC (BD 555466), CD235-PE (BD 555570), CD71-FITC (BD 555536), washed and spun at 3300 rpm for 7 min, and re-suspended in 0.5% BSA in PBS with 1 ug/ml Propidium Iodide. Samples were run on a BD FACScalibur using Cellquest Pro software and analyzed via FloJo 8.7. For ploidy analysis, cells were treated with 1.5% NP-40 (Boston Bioproducts P-872) and 62.5 ug/ml Propidium Iodide in PBS immediately before FACScalibur interrogation. For murine bone marrow, samples were first incubated for 5 min at ambient temperature with murine conjugated antibody CD16/32 (BD 553142) before a 30 min incubation with c-Kit-PE (BD 553355), CD41a-FITC (BD 553848), Ter119-PE (BD 553673). For cell viability assays, 2-3×10 ^5 cells were collected, re-suspended in 8.8 ug/ml Hoecsht 33342 in PBS supplemented with 5% FBS. Samples were then incubated in the dark at 37° C. for 15 min, washed, and re-suspended in 1 ug/ml Propidium Iodide in 5% FBS. Samples were run on an LSR-II machine with FACSDiva software and analyzed via FloJo 8.7.
In our previous studies in which we noted exponential expansion of iPSC-derived MEPs (FIG. 3), the AhR-mediated effect that we noted allowed us to culture cells for extended periods of time (>120 days). […]

With `O=Cc1c2c(cc3c1=Nc1ccccc1-3)=Nc1ccccc1-2` [FICZ, 6-formylindolo[3,2-b]carbazole] the “expansion of MEPs (cell number)” value (iPSC-derived MEPs [1]; after addition of FICZ to cultures) was “from a few thousand to a billion cells in a few weeks”, the “growth of MEPs” value (iPSC-derived MEPs [1]; day 15 MEPs +/-0.2 μm FICZ, 2 week growth period, versus untreated) was “logarithmic expansion” and the “time cells could be cultured” value (iPSC-derived MEPs [1]; iPSC-derived MEPs under AhR agonism) was > 120 days. The “erythroid specification (CD71 / CD235 expression)” value (iPSC-derived MEPs [2]) was “progressive erythroid specification and maturation”.

Reference: patent US12173320B2, “Production of red blood cells and platelets from stem cells” (BOSTON MEDICAL CENTER CORPORATION, priority 2012, dated 2024)
